These are literature values, as cited in patent US11338055B2, “Wound dressing” (Animal Ethics Pty Ltd, priority 2017, dated 2022).

The conditions of the data set: typically up to about; depending on the method of administration.

With `CCCCN1CCCCC1C(=O)Nc1c(C)cccc1C` (stereo not shown) [bupivacaine], the duration of anaesthesia is 6 to 12 h.
